{"source": "patent US10696686B2", "about": "“Herbicidally active (alkynyl-phenyl)-substituted cyclic dione compounds and derivatives thereof” (Syngenta Limited, priority 2013, dated 2020)", "type_in_all_cases": "in vivo", "key": {"[1]": {"test_system": "Alopecurus myosuroides (ALOMY)", "assay": "Biological Example 1B glasshouse assay, pre-emergence application", "settings": "250 g/ha, 13 days after application", "procedure": "(§1) Seeds of a variety of test plant species were sown in standard soil ** in pots. After cultivation for one day (pre-emergence) or after 8 days cultivation (post-emergence) under controlled conditions in a glasshouse (at 24/16° C., day/night; 14 hours light; 65% humidity), the plants were sprayed with an aqueous spray solution derived from the formulation of the technical active ingredient (the test herbicide) in acetone/water (50:50) solution containing 0.5% Tween 20 (polyoxyethylene sorbitan monolaurate, CAS Reg. No. 9005-64-5). The test plants were then grown on under controlled conditions in a glasshouse (at 24/16° C., day/night; 14 hours light; 65% humidity) and watered twice daily. 13 Days after application of the test herbicide, for pre- and post-emergence, the test was evaluated visually for percentage phytotoxicity to each plant (where 100%=total damage to plant; 0%=no damage to plant). Generally, each test herbicide is only tested on 1 plant per plant species for each application rate tested and for each application timing. ** The “standard soil” in Biological Example 1 is usually a “sand” or “sandy loam” type of soil.\n(§2) Dicotyledonous weeds: ABUTH=Abutilon theophrasti; AMARE=Amaranthus retroflexus. Grassy monocotyledonous weeds: SETFA=Setaria faberi; ALOMY=Alopecurus myosuroides; ECHCG=Echinochloa crus-galli; ZEAMX=Zea mays (corn, maize, e.g. volunteer corn). For Compound A16, the grassy monocotyledonous weed LOLPE (Lolium perenne) was used in the test insterad of ALOMY."}, "[2]": {"test_system": "Amaranthus retroflexus (AMARE)", "assay": "Biological Example 1B glasshouse assay, pre-emergence application", "settings": "250 g/ha, 13 days after application", "procedure": "as §1, §2"}, "[3]": {"test_system": "Setaria faberi (SETFA)", "assay": "Biological Example 1B glasshouse assay, pre-emergence application", "settings": "250 g/ha, 13 days after application", "procedure": "as §1, §2"}, "[4]": {"test_system": "Zea mays (ZEAMX, corn, maize, e.g. volunteer corn)", "assay": "Biological Example 1B glasshouse assay, pre-emergence application", "settings": "250 g/ha, 13 days after application", "procedure": "as §1, §2"}, "[5]": {"test_system": "Alopecurus myosuroides (ALOMY)", "assay": "Biological Example 2 glasshouse assay (IF50 formulation, X-77), post-emergence", "settings": "14 or 15 DAA", "procedure": "(§3) Seeds of a variety of monocotyledonous and dicotyledonous test plants are sown in standard soil in pots. The plants are cultivated for one day (for pre-emergence) or for about 12 days (range=10-13 days) (for post-emergence) under controlled conditions in a glasshouse (warm climate species at 24/18° C., cool climate species at 20/16° C., both at day/night; 16 hours light; 65% humidity). An “instant formulation”, known as the “IF50”, containing 50 g/litre (i.e. 5% w/v) of the “technical” (i.e. unformulated) active ingredient is prepared by dissolving the active ingredient in a mixture of organic solvents and emulsifier, details of which are provided in the Table below. This IF50 is then mixed with a small, variable amount of acetone to aid dissolution, before addition of a 0.2% v/v aqueous solution of the adjuvant X-77 (which is a mixture of alkyl aryl polyoxyethylene glycols and free fatty acids in isopropanol, CAS Registry number 11097-66-8), as the aqueous diluent, to form an aqueous spray solution which contains a predetermined concentration of the active ingredient (which varies depending on the application rate of the active ingredient to the plants) and 0.2% v/v of the adjuvant X-77. This aqueous spray solution is then sprayed onto the plants, after one day's cultivation (for pre-emergence) or after about 12 days' cultivation (for post-emergence).\n(§4) The test plants are then grown on, in a glasshouse (greenhouse) under controlled conditions (at either 24/18° C. or 20/16° C. (day/night) as mentioned above; 16 hours light; 65% humidity) and are watered twice daily. Either 14 or 15 days after application of the herbicide (14 or 15 DAA) (for post-emergence), or 20 days after application of the herbicide (20 DAA) (for pre-emergence), the test plants are evaluated visually, and an assessed percentage phytotoxicity score is given for each herbicidal application on each plant species (where 100%=total damage to plant; 0%=no damage to plant). Some of the typical test plants are as follows: Cool climate crop plants: Triticum aestivum (TRZAW, winter wheat), Brassica napus (BRSNN, rape, also called oilseed rape or rapeseed), Beta vulgaris (BEAVA, sugarbeet). Warm climate crop plants: Glycine max (GLXMA, soybean). Cool climate (“cool season”) grassy monocotyledonous weeds: Alopecurus myosuroides (ALOMY), Avena fatua (AVEFA), Lolium perenne (LOLPE), Poa annua (POAAN), Bromus tectorum (BROTE). Warm climate (“warm season”) grassy monocotyledonous weeds: Setaria faberi (SETFA), SORVU (Sorghum bicolor (L.) Moench ssp. Bicolor, or Sorghum vulgare Pers.), Digitaria sanguinalis (DIGSA), Echinochloa crus-galli (ECHCG), Brachiaria plantaginea (BRAPL), Zea mays (ZEAMX, corn, maize, e.g. volunteer corn), Panicum miliaceum (PANMI)."}, "[6]": {"test_system": "Avena fatua (AVEFA)", "assay": "Biological Example 2 glasshouse assay (IF50 formulation, X-77), post-emergence", "settings": "14 or 15 DAA", "procedure": "as §3, §4"}, "[7]": {"test_system": "Brachiaria plantaginea (BRAPL)", "assay": "Biological Example 2 glasshouse assay (IF50 formulation, X-77), post-emergence", "settings": "14 or 15 DAA", "procedure": "as §3, §4"}, "[8]": {"test_system": "Brassica napus (BRSNN, rape)", "assay": "Biological Example 2 glasshouse assay (IF50 formulation, X-77), post-emergence", "settings": "14 or 15 DAA", "procedure": "as §3, §4"}, "[9]": {"test_system": "Digitaria sanguinalis (DIGSA)", "assay": "Biological Example 2 glasshouse assay (IF50 formulation, X-77), post-emergence", "settings": "14 or 15 DAA", "procedure": "as §3, §4"}, "[10]": {"test_system": "Echinochloa crus-galli (ECHCG)", "assay": "Biological Example 2 glasshouse assay (IF50 formulation, X-77), post-emergence", "settings": "14 or 15 DAA", "procedure": "as §3, §4"}, "[11]": {"test_system": "Glycine max (GLXMA, soybean)", "assay": "Biological Example 2 glasshouse assay (IF50 formulation, X-77), post-emergence", "settings": "for percentage phytotoxicity score GLXMA: post-emergence, 14 or 15 DAA", "procedure": "as §3, §4"}, "[12]": {"test_system": "Lolium perenne (LOLPE)", "assay": "Biological Example 2 glasshouse assay (IF50 formulation, X-77), post-emergence", "settings": "14 or 15 DAA", "procedure": "as §3, §4"}, "[13]": {"test_system": "SORVU (Sorghum bicolor (L.) Moench ssp. Bicolor, or Sorghum vulgare Pers.)", "assay": "Biological Example 2 glasshouse assay (IF50 formulation, X-77), post-emergence", "settings": "14 or 15 DAA", "procedure": "as §3, §4"}, "[14]": {"test_system": "Triticum aestivum (TRZAW, winter wheat)", "assay": "Biological Example 2 glasshouse assay (IF50 formulation, X-77), post-emergence", "settings": "for percentage phytotoxicity score TRZAW: 14 or 15 DAA", "procedure": "as §3, §4"}, "[15]": {"test_system": "Zea mays (ZEAMX, corn, maize, e.g. volunteer corn)", "assay": "Biological Example 2 glasshouse assay (IF50 formulation, X-77), post-emergence", "settings": "14 or 15 DAA", "procedure": "as §3, §4"}, "[16]": {"test_system": "grassy (in particular warm climate grassy) monocotyledonous weeds", "assay": "Post-emergence herbicidal activity, summary statements on Biological Examples 1 to 3", "settings": "applied at about 250 g/ha post-emergence; Biological Examples 1 and 2", "procedure": "as §1\nSeeds of a variety of monocotyledonous and dicotyledonous test plants are sown in standard soil in pots. The plants are cultivated for one day (for pre-emergence) or for about 12 days (range=10-13 days) (for post-emergence) under controlled conditions in a glasshouse (warm climate species at 24/18° C., cool climate species at 20/16° C., both at day/night; 16 hours light; 65% humidity). An “instant formulation”, known as the “IF50”, containing 50 g/litre (i.e. 5% w/v) of the “technical” (i.e. unformulated) active ingredient is prepared by dissolving the active ingredient in a mixture of organic solvents and emulsifier, details of which are provided in the Table below. […]\nThe test plants are then grown on, in a glasshouse (greenhouse) under controlled conditions (at either 24/18° C. or 20/16° C. (day/night) as mentioned above; 16 hours light; 65% humidity) and are watered twice daily. Either 14 or 15 days after application of the herbicide (14 or 15 DAA) (for post-emergence), or 20 days after application of the herbicide (20 DAA) (for pre-emergence), the test plants are evaluated visually, and an assessed percentage phytotoxicity score is given for each herbicidal application on each plant species (where 100%=total damage to plant; 0%=no damage to plant). […]"}, "[17]": {"settings": "125 g/ha (rate taken from row order)"}, "[18]": {"settings": "250 g/ha (rate taken from row order)"}}}
{"smiles": "C#CCC1CC(=O)C(c2c(F)cc(C#CC)cc2OC)C1=O", "note": "(centres unmarked) [Compound A8, 2-(2-fluoro-6-methoxy-4-prop-1-ynyl-phenyl)-4-prop-2-ynyl-cyclopentane-1,3-dione]", "values": [{"measurement": "Percentage phytotoxicity ALOMY", "setting": "[1]", "value": 90, "unit": "%"}, {"measurement": "Percentage phytotoxicity AMARE", "setting": "[2]", "value": 0, "unit": "%"}, {"measurement": "Percentage phytotoxicity SETFA", "setting": "[3]", "value": 90, "unit": "%"}, {"measurement": "Percentage phytotoxicity ZEAMX", "setting": "[4]", "value": 100, "unit": "%"}, {"measurement": "percentage phytotoxicity score ALOMY", "setting": "[5]; 125 g/ha", "value": 50, "unit": "%"}, {"measurement": "percentage phytotoxicity score ALOMY", "setting": "[5]; 250 g/ha", "value": 70, "unit": "%"}, {"measurement": "percentage phytotoxicity score AVEFA", "setting": "[6]; [17]", "value": 30, "unit": "%"}, {"measurement": "percentage phytotoxicity score AVEFA", "setting": "[6]; [18]", "value": 70, "unit": "%"}, {"measurement": "percentage phytotoxicity score BRAPL", "setting": "[7]; [17]", "value": 100, "unit": "%"}, {"measurement": "percentage phytotoxicity score BRAPL", "setting": "[7]; [18]", "value": 100, "unit": "%"}, {"measurement": "percentage phytotoxicity score BRSNN", "setting": "[8]; 125 g/ha", "value": 40, "unit": "%"}, {"measurement": "percentage phytotoxicity score BRSNN", "setting": "[8]; 250 g/ha", "value": 60, "unit": "%"}, {"measurement": "percentage phytotoxicity score DIGSA", "setting": "[9]; [17]", "value": 100, "unit": "%"}, {"measurement": "percentage phytotoxicity score DIGSA", "setting": "[9]; [18]", "value": 100, "unit": "%"}, {"measurement": "percentage phytotoxicity score ECHCG", "setting": "[10]; [17]", "value": 100, "unit": "%"}, {"measurement": "percentage phytotoxicity score ECHCG", "setting": "[10]; [18]", "value": 100, "unit": "%"}, {"measurement": "phytotoxicity against soybean (in words)", "setting": "[11]; e.g. when applied at 30 g/ha post-emergence, see Biological Example 2", "value": "low or reasonably low phytotoxicity"}, {"measurement": "percentage phytotoxicity score GLXMA", "setting": "[11]; 125 g/ha", "value": 10, "unit": "%"}, {"measurement": "percentage phytotoxicity score GLXMA", "setting": "[11]; 250 g/ha", "value": 30, "unit": "%"}, {"measurement": "percentage phytotoxicity score LOLPE", "setting": "[12]; [17]", "value": 30, "unit": "%"}, {"measurement": "percentage phytotoxicity score LOLPE", "setting": "[12]; [18]", "value": 80, "unit": "%"}, {"measurement": "percentage phytotoxicity score SORVU", "setting": "[13]; [17]", "value": 100, "unit": "%"}, {"measurement": "percentage phytotoxicity score SORVU", "setting": "[13]; [18]", "value": 100, "unit": "%"}, {"measurement": "percentage phytotoxicity score TRZAW", "setting": "[14]; 125 g/ha", "value": 50, "unit": "%"}, {"measurement": "percentage phytotoxicity score TRZAW", "setting": "[14]; 250 g/ha", "value": 70, "unit": "%"}, {"measurement": "phytotoxicity against wheat (in words)", "setting": "[14]; relative to herbicidal activity against warm-climate grassy weeds, Biological Example 2", "value": "medium or reasonably low phytotoxicity"}, {"measurement": "percentage phytotoxicity score ZEAMX", "setting": "[15]; 125 g/ha", "value": 100, "unit": "%"}, {"measurement": "percentage phytotoxicity score ZEAMX", "setting": "[15]; 250 g/ha", "value": 100, "unit": "%"}, {"measurement": "post-emergent herbicidal potency against grassy monocotyledonous weeds (in words)", "setting": "[16]", "value": "potent post-emergent herbicides"}]}
